Assay [1] concerns the target T1, Dual specificity mitogen-activated protein kinase kinase 4 (Homo sapiens, UniProt P45985).
T1 sequence (P45985 whole entry): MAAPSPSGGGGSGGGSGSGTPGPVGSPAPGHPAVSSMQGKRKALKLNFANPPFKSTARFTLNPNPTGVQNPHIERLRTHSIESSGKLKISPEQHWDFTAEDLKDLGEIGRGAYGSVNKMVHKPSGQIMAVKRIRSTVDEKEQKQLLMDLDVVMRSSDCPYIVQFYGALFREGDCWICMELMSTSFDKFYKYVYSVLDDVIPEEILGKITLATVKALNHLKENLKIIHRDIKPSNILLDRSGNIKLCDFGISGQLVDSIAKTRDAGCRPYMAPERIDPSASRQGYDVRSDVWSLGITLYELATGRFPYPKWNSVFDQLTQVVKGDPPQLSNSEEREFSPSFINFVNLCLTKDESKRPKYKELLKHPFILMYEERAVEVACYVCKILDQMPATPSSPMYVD

Assay [2] addresses T2, Serine/threonine-protein kinase Nek5 (Homo sapiens, UniProt Q6P3R8).
T2 sequence (Q6P3R8 whole entry): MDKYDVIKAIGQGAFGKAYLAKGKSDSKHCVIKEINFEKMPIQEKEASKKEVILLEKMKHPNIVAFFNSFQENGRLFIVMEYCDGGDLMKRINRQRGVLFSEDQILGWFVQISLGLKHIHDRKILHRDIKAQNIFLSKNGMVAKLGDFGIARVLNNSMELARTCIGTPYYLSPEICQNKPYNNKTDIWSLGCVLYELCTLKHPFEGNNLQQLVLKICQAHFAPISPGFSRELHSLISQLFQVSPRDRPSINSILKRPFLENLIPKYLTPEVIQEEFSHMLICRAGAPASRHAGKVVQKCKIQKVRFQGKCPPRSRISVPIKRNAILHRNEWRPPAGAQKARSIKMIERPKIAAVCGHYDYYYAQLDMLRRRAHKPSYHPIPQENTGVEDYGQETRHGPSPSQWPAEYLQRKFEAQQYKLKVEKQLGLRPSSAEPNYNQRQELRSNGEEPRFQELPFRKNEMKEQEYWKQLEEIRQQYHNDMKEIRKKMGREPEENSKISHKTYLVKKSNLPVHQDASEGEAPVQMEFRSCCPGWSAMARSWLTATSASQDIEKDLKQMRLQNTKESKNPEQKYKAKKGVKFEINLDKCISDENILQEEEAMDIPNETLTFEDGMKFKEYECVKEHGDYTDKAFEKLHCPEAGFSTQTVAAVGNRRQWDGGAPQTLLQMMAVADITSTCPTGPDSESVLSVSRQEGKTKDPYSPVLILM

For assay [3], the target named is Protein kinase C delta type (Homo sapiens, UniProt Q05655).
Chain of Protein kinase C delta type (Q05655 whole entry): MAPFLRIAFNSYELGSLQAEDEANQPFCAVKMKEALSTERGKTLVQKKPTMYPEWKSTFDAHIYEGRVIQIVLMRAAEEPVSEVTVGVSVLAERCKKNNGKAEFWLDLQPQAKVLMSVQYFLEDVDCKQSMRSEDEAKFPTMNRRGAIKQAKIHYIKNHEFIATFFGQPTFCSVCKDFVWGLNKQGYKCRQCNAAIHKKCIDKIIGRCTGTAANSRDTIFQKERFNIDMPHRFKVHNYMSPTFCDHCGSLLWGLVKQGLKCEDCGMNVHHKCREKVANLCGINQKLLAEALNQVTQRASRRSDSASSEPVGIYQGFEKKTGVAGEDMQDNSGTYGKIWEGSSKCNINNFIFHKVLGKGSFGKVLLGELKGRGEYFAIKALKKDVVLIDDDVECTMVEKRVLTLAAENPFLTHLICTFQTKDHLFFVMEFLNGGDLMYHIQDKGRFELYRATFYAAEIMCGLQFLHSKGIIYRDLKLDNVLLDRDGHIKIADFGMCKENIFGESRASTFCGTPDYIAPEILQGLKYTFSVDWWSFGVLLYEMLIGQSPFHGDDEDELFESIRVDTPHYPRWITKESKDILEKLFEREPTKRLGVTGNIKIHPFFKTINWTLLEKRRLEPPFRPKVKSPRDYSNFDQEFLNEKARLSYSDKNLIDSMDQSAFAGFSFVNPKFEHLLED
Assay [4] has as its target T3, Dual specificity protein kinase TTK (Homo sapiens, UniProt P33981).
T3 sequence (P33981 whole entry): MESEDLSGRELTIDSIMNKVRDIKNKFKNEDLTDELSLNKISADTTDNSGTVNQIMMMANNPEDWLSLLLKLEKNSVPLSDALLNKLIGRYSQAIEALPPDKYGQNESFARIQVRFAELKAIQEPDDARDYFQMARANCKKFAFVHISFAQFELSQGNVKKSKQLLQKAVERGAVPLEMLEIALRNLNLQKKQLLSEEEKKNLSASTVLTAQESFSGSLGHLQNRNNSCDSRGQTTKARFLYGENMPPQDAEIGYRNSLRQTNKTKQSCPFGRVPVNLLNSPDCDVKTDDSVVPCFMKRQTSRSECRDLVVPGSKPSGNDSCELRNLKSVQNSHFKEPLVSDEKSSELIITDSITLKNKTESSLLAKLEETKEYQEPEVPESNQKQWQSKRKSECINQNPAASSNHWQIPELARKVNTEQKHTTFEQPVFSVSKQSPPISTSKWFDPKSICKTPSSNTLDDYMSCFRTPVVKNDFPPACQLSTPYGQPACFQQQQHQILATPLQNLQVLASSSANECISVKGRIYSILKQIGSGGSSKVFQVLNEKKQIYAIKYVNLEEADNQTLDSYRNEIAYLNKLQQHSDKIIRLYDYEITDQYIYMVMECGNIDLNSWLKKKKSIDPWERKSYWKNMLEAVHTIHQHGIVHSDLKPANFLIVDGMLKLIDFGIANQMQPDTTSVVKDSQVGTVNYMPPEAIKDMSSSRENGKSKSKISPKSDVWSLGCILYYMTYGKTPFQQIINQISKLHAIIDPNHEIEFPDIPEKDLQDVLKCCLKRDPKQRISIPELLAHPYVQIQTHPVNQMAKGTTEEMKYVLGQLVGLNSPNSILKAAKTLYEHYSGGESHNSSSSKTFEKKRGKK

The target of assay [5] is Proto-oncogene tyrosine-protein kinase receptor Ret (Homo sapiens, UniProt P07949).
Chain of Proto-oncogene tyrosine-protein kinase receptor Ret (P07949 whole entry): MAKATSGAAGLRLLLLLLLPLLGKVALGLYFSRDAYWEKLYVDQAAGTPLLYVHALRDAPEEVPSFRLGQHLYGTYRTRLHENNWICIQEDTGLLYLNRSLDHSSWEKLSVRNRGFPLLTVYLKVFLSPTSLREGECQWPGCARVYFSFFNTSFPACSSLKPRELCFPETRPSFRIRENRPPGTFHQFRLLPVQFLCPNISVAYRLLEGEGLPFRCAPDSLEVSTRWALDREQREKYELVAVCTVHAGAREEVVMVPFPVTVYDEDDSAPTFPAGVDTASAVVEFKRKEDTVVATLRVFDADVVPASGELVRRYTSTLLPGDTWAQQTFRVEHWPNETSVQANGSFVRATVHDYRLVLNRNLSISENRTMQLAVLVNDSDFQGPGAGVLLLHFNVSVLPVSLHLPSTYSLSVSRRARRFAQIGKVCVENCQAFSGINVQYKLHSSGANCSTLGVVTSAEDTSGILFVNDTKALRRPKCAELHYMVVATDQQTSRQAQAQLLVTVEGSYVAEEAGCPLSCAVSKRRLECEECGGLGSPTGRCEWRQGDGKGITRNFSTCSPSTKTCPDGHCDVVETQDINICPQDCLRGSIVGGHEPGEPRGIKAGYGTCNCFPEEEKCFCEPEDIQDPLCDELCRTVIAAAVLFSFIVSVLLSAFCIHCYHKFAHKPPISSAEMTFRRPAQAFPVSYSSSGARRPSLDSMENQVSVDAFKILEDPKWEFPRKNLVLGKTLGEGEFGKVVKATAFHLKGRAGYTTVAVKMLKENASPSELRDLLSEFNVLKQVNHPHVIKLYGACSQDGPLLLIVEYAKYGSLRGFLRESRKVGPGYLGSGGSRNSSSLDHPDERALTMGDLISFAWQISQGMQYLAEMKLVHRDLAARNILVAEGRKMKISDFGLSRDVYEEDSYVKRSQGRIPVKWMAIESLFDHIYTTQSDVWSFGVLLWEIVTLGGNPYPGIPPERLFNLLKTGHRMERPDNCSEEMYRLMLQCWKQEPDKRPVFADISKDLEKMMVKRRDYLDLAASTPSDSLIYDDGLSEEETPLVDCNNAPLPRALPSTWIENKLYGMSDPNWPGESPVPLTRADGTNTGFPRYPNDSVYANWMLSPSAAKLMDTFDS
Assay [6] deals with T4, Serine/threonine-protein kinase PLK4 (Homo sapiens, UniProt O00444).
T4 sequence (O00444 whole entry): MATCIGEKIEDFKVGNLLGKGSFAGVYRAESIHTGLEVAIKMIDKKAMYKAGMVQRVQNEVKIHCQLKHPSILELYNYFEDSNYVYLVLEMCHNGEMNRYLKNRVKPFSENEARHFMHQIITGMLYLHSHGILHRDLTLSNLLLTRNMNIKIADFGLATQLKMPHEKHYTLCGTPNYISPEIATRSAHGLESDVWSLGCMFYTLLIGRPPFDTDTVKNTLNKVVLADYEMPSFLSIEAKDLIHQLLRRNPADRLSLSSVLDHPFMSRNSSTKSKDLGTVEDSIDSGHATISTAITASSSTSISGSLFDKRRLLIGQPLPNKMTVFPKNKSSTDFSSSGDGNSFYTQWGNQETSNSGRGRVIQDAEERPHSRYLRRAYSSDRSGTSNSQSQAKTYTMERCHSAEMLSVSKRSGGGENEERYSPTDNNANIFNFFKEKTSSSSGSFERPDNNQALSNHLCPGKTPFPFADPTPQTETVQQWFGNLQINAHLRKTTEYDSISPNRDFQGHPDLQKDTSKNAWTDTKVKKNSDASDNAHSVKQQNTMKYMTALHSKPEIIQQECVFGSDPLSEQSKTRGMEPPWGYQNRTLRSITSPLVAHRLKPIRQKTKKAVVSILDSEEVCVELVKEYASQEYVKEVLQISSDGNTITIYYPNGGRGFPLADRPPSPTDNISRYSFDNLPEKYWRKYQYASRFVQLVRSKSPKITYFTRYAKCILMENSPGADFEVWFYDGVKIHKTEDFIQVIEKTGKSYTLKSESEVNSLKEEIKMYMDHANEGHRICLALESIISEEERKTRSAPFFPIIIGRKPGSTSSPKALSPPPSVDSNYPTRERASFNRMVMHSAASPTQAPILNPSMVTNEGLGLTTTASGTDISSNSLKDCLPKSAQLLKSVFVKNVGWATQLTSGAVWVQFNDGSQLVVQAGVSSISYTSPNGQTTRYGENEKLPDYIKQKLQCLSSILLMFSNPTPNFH

Broadly, the Kd is the concentration at which binding is half-saturated. A low value points to a tighter complex. `CCN1CCN(Cc2ccc(NC(=O)Nc3ccc(Oc4cc(NC)ncn4)cc3)cc2C(F)(F)F)CC1` [AST-487]: the Kd in assay [1] was above 10 µM.

For `COCC(=O)NC/C=C/c1ccc2ncnc(Nc3ccc(Oc4ccc(C)nc4)c(C)c3)c2c1` [CP-724714], the Kd in assay [1], in assay [2], in assay [3], in assay [4], in assay [5] and in assay [6] was above 10 µM throughout.

For the compound `Nc1nc(Nc2ccc(S(N)(=O)=O)cc2)nn1C(=O)c1c(F)cccc1F` [JNJ-7706621], the dissociation constant Kd in assay [2] is above 10 µM; in assay [3] it was 4.5 µM; in assay [6], 0.12 µM.

With `CCOc1cc2ncc(C#N)c(Nc3ccc(F)c(Cl)c3)c2cc1NC(=O)/C=C/CN(C)C` [PELITINIB], the Kd in assay [1], in assay [2], in assay [4], in assay [5] and in assay [6] was above 10 µM in each case.

Turning to `Oc1ccc(-c2nc(-c3ccncc3)c(-c3ccc(F)cc3)[nH]2)cc1` [SB-202190], the Kd was above 10 µM in assay [1]; above 10 µM in assay [2]; above 10 µM in assay [3]; 4.5 µM in assay [4]; above 10 µM in assay [5]; above 10 µM in assay [6].

Take `NC(=O)c1ccc(-c2nc(-c3ccc4c(c3)OCO4)c(-c3ccccn3)[nH]2)cc1` [SB-431542]: the Kd in assay [1], in assay [2], in assay [3], in assay [4], in assay [5] and in assay [6] was above 10 µM throughout.

These data come from ChEMBL document CHEMBL1150977, “A quantitative analysis of kinase inhibitor selectivity” (Nat Biotechnol, 2008).
